Tested on: 422866-222-R5-J1-PDC spheroid viability
Test: Anticancer human tumor 422866-222-R5-J1-PDC patient-derived pancreatic adenocarcinoma cell line growth inhibition [CLK]
Details: spheroids with HUVEC and MSC; for IC50: curve of first compound; for viability, T/C: stronger effect = lower value
Outline: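 Patient-derived tumor cells grown as complex spheroids with HUVEC endothelial cells and mesenchymal stem cells, treated with drug combinations. Concentrations descend in half-log steps from near clinical Cmax, or from 10 microM if Cmax unknown.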

[1] = second compound 0.0316 µM, first compound 0.0316 µM
[2] = second compound 0.0316 µM, first compound 0.1 µM
[3] = second compound 0.0316 µM, first compound 0.316 µM
[4] = second compound 0.0316 µM, first compound 1 µM
[5] = second compound 0.0316 µM, first compound 3.16 µM
[6] = second compound 0.0316 µM, first compound 10 µM
[7] = second compound 0.1 µM, first compound 0.0316 µM
[8] = second compound 0.1 µM, first compound 0.1 µM
[9] = second compound 0.1 µM, first compound 0.316 µM
[10] = second compound 0.1 µM, first compound 1 µM
[11] = second compound 0.1 µM, first compound 3.16 µM
[12] = second compound 0.1 µM, first compound 10 µM
[13] = second compound 0.316 µM, first compound 0.0316 µM
[14] = second compound 0.316 µM, first compound 0.1 µM
[15] = second compound 0.316 µM, first compound 0.316 µM
[16] = second compound 0.316 µM, first compound 1 µM
[17] = second compound 0.316 µM, first compound 3.16 µM
[18] = second compound 0.316 µM, first compound 10 µM
[19] = second compound 1 µM, first compound 0.0316 µM
[20] = second compound 1 µM, first compound 0.1 µM
[21] = second compound 1 µM, first compound 0.316 µM
[22] = second compound 1 µM, first compound 1 µM
[23] = second compound 1 µM, first compound 3.16 µM
[24] = second compound 1 µM, first compound 10 µM
[25] = second compound 3.16 µM, first compound 0.0316 µM
[26] = second compound 3.16 µM, first compound 0.1 µM
[27] = second compound 3.16 µM, first compound 0.316 µM
[28] = second compound 3.16 µM, first compound 1 µM
[29] = second compound 3.16 µM, first compound 3.16 µM
[30] = second compound 3.16 µM, first compound 10 µM
[31] = second compound 10 µM, first compound 0.0316 µM
[32] = second compound 10 µM, first compound 0.1 µM
[33] = second compound 10 µM, first compound 0.316 µM
[34] = second compound 10 µM, first compound 1 µM
[35] = second compound 10 µM, first compound 3.16 µM
[36] = second compound 10 µM, first compound 10 µM
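Also: spheroids exposed to agents for seven days before readout.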

SMILES: CC1(C)CCC(CN2CCN(c3ccc(C(=O)NS(=O)(=O)c4ccc(NCC5CCOCC5)c([N+](=O)[O-])c4)c(Oc4cnc5[nH]ccc5c4)c3)CC2)=C(c2ccc(Cl)cc2)C1 + CNC(=O)c1ccc(Nc2nc(OC3CCCC3)c3c(-c4ccc5nc(C)oc5c4)c[nH]c3n2)c(OC)c1
- IC50 (second compound 0.0316 µM): > 10 µM
- IC50 (second compound 0.1 µM): > 10 µM
- IC50 (second compound 0.316 µM): > 10 µM
- IC50 (second compound 1 µM): > 10 µM
- IC50 (second compound 3.16 µM): > 10 µM
- IC50 (second compound 10 µM): > 10 µM
- viability, T/C [1]: 115%
- viability, T/C [2]: 87.5%
- viability, T/C [3]: 93.9%
- viability, T/C [4]: 119%
- viability, T/C [5]: 131%
- viability, T/C [6]: 93.4%
- viability, T/C [7]: 114%
- viability, T/C [8]: 90%
- viability, T/C [9]: 98.7%
- viability, T/C [10]: 100%
- viability, T/C [11]: 114%
- viability, T/C [12]: 81.3%
- viability, T/C [13]: 84.6%
- viability, T/C [14]: 71.9%
- viability, T/C [15]: 70.1%
- viability, T/C [16]: 75.7%
- viability, T/C [17]: 86.6%
- viability, T/C [18]: 78%
- viability, T/C [19]: 75.3%
- viability, T/C [20]: 76.4%
- viability, T/C [21]: 76%
- viability, T/C [22]: 70.7%
- viability, T/C [23]: 66%
- viability, T/C [24]: 57.1%
- viability, T/C [25]: 65.2%
- viability, T/C [26]: 76.6%
- viability, T/C [27]: 66.4%
- viability, T/C [28]: 67.7%
- viability, T/C [29]: 76.8%
- viability, T/C [30]: 79.5%
- viability, T/C [31]: 60.3%
- viability, T/C [32]: 62.4%
- viability, T/C [33]: 61%
- viability, T/C [34]: 56.6%
- viability, T/C [35]: 78.1%
- viability, T/C [36]: 84.3%

SMILES: NC(=O)C(=Cn1cnc(-c2cc(C(F)(F)F)cc(C(F)(F)F)c2)n1)c1cncnc1 + CNC(=O)c1ccc(Nc2nc(OC3CCCC3)c3c(-c4ccc5nc(C)oc5c4)c[nH]c3n2)c(OC)c1
- IC50 (second compound 0.0316 µM): > 3 µM
- IC50 (second compound 0.1 µM): > 3 µM
- IC50 (second compound 0.316 µM): 0.279 µM
- IC50 (second compound 1 µM): 0.0554 µM
- IC50 (second compound 3.16 µM): 0.037 µM
- IC50 (second compound 10 µM): 0.0552 µM
- viability, T/C (second compound 0.0316 µM, first compound 0.00949 µM): 98.7%
- viability, T/C (second compound 0.0316 µM, first compound 0.03 µM): 107%
- viability, T/C (second compound 0.0316 µM, first compound 0.0949 µM): 95.1%
- viability, T/C (second compound 0.0316 µM, first compound 0.3 µM): 47.6%
- viability, T/C (second compound 0.0316 µM, first compound 0.949 µM): 75.6%
- viability, T/C (second compound 0.0316 µM, first compound 3 µM): 76.5%
- viability, T/C (second compound 0.1 µM, first compound 0.00949 µM): 98.5%
- viability, T/C (second compound 0.1 µM, first compound 0.03 µM): 115%
- viability, T/C (second compound 0.1 µM, first compound 0.0949 µM): 66.6%
- viability, T/C (second compound 0.1 µM, first compound 0.3 µM): 46.2%
- viability, T/C (second compound 0.1 µM, first compound 0.949 µM): 47.5%
- viability, T/C (second compound 0.1 µM, first compound 3 µM): 67.5%
- viability, T/C (second compound 0.316 µM, first compound 0.00949 µM): 86.1%
- viability, T/C (second compound 0.316 µM, first compound 0.03 µM): 87.6%
- viability, T/C (second compound 0.316 µM, first compound 0.0949 µM): 56.8%
- viability, T/C (second compound 0.316 µM, first compound 0.3 µM): 31.4%
- viability, T/C (second compound 0.316 µM, first compound 0.949 µM): 45.4%
- viability, T/C (second compound 0.316 µM, first compound 3 µM): 71.8%
- viability, T/C (second compound 1 µM, first compound 0.00949 µM): 52%
- viability, T/C (second compound 1 µM, first compound 0.03 µM): 69.5%
- viability, T/C (second compound 1 µM, first compound 0.0949 µM): 40.6%
- viability, T/C (second compound 1 µM, first compound 0.3 µM): 21.7%
- viability, T/C (second compound 1 µM, first compound 0.949 µM): 32.3%
- viability, T/C (second compound 1 µM, first compound 3 µM): 54.9%
- viability, T/C (second compound 3.16 µM, first compound 0.00949 µM): 45.7%
- viability, T/C (second compound 3.16 µM, first compound 0.03 µM): 60.2%
- viability, T/C (second compound 3.16 µM, first compound 0.0949 µM): 37.3%
- viability, T/C (second compound 3.16 µM, first compound 0.3 µM): 21.3%
- viability, T/C (second compound 3.16 µM, first compound 0.949 µM): 29.5%
- viability, T/C (second compound 3.16 µM, first compound 3 µM): 48.2%
- viability, T/C (second compound 10 µM, first compound 0.00949 µM): 55.1%
- viability, T/C (second compound 10 µM, first compound 0.03 µM): 65.4%
- viability, T/C (second compound 10 µM, first compound 0.0949 µM): 40.9%
- viability, T/C (second compound 10 µM, first compound 0.3 µM): 27.9%
- viability, T/C (second compound 10 µM, first compound 0.949 µM): 37.2%
- viability, T/C (second compound 10 µM, first compound 3 µM): 49.3%

SMILES: Nc1ccccc1NC(=O)c1ccc(CNC(=O)OCc2cccnc2)cc1 + CNC(=O)c1ccc(Nc2nc(OC3CCCC3)c3c(-c4ccc5nc(C)oc5c4)c[nH]c3n2)c(OC)c1
- IC50 (second compound 0.0316 µM): > 10 µM
- IC50 (second compound 0.1 µM): > 10 µM
- IC50 (second compound 0.316 µM): > 10 µM
- IC50 (second compound 1 µM): 4.64 µM
- IC50 (second compound 3.16 µM): > 10 µM
- IC50 (second compound 10 µM): > 10 µM
- viability, T/C [1]: 115%
- viability, T/C [2]: 121%
- viability, T/C [3]: 157%
- viability, T/C [4]: 90%
- viability, T/C [5]: 68.7%
- viability, T/C [6]: 74.7%
- viability, T/C [7]: 106%
- viability, T/C [8]: 116%
- viability, T/C [9]: 114%
- viability, T/C [10]: 99.8%
- viability, T/C [11]: 77.9%
- viability, T/C [12]: 79.2%
- viability, T/C [13]: 82.5%
- viability, T/C [14]: 76.5%
- viability, T/C [15]: 77%
- viability, T/C [16]: 80.8%
- viability, T/C [17]: 64.5%
- viability, T/C [18]: 50.9%
- viability, T/C [19]: 75.1%
- viability, T/C [20]: 67.6%
- viability, T/C [21]: 69.1%
- viability, T/C [22]: 60.8%
- viability, T/C [23]: 58.5%
- viability, T/C [24]: 39.1%
- viability, T/C [25]: 65.7%
- viability, T/C [26]: 60.2%
- viability, T/C [27]: 77.6%
- viability, T/C [28]: 76.2%
- viability, T/C [29]: 60.6%
- viability, T/C [30]: 49.6%
- viability, T/C [31]: 67.2%
- viability, T/C [32]: 60.6%
- viability, T/C [33]: 71.9%
- viability, T/C [34]: 61.2%
- viability, T/C [35]: 67.3%
- viability, T/C [36]: 48.1%

From PubChem BioAssay AID2060603 (Molecular Pharmacology Branch, DTP, NCI, 2025)
